How the values were obtained:
vCap Cell = test: vCap cell growth inhibition, CellTiter-Glo, 72 h; format: cell-based; details: Homo sapiens, VCaP, 72 h, vCap cells, 72 h culture
Experimental: (§1) 22RV1 or vCap cells were cultured in RPMI-1640 medium (10% fetal bovine serum and 100 units (per mL) of penicillin/streptomycin dual antibody were added to RPMI-1640) in a 37° C., 5% CO2 cell incubator. Cells at the logarithmic growth phase were inoculated onto a 96-well cell culture plate at 5×10^3 cells/100 μL/well and cultured overnight. Solutions of different concentrations of an active compound in DMSO were added, with the final concentration being 0.5% DMSO. The positive control was 1% TweeN2O, and the negative control was 0.5% DMSO. After 72 h of culture, an equal volume of CellTiter-Glo was added to each well, and the mixtures were mixed homogeneously by shaking for 2 min. The plate was let stand at room temperature for 10 min, and fluorescence signal values were read using a microplate reader. Data were analyzed using Prism 7.0 and graphs were generated. The values are shown as mean f SEM (N=2). […] The X-axis represents compound concentration (μM), and the Y-axis represents % inhibition.

22Rv1 Cell = test: 22RV1 cell growth inhibition, CellTiter-Glo, 72 h; format: cell-based; details: Homo sapiens, 22Rv1, 72 h, 22RV1 cells, 72 h culture
Experimental: as §1

Row | SMILES | IC50 (vCap Cell) | IC50 (22Rv1 Cell)
1 | CNC(=O)N1CCc2cc(C3CCN(CC(F)(F)F)CC3)cc(N3CCCc4cc(-c5cnn(C)c5)c(C(F)F)cc43)c2C1 [Compound M001060] | > 1 µM | > 1 µM
2 | CC(=O)N1Cc2cc(C3CCC(F)(F)CC3)cc(N3CCCc4cc(-c5cnn(C)c5)c(C(F)F)cc43)c2C1 [Compound M001066] | > 1 µM | > 1 µM
3 | CNC(=O)N1CCc2cc(C3CCN(C(=O)C4CC4)CC3)cc(N3CCCc4cc(-c5cnn(C)c5)c(C(F)F)cc43)c2C1 [Compound M001069] | > 1 µM | < 1 µM
4 | CNC(=O)N1CCc2cc(C3CCN(CC#N)CC3)cc(N3CCCc4cc(-c5cnn(C)c5)c(C(F)F)cc43)c2C1 [Compound M001070] | > 1 µM | > 1 µM
5 | CC(=O)N1CCC(c2cc3c(c(N4CCCc5cc(-c6cnn(C)c6)c(C(F)F)cc54)c2)CN(C(C)=O)C3)CC1 [Compound M001071] | > 1 µM | > 1 µM
6 | CC(=O)N1Cc2cc(C3CCN(C(=O)C4CC4)CC3)cc(N3CCCc4cc(-c5cnn(C)c5)c(C(F)F)cc43)c2C1 [Compound M001072] | > 1 µM | > 1 µM
7 | CC(=O)N1Cc2cc(C3CCN(C(=O)C(C)O)CC3)cc(N3CCCc4cc(-c5cnn(C)c5)c(C(F)F)cc43)c2C1 (stereo not drawn) [Compound M001073] | > 1 µM | > 1 µM
8 | CNC(=O)N1CCc2cc(C3CCN(C(=O)C4CCNC4)CC3)cc(N3CCCc4cc(-c5cnn(C)c5)c(C(F)F)cc43)c2C1 (stereo not drawn) [Compound M001075] | > 1 µM | > 1 µM
9 | CC(=O)N1Cc2cc(C3CCN(C(=O)C4CNC4)CC3)cc(N3CCCc4cc(-c5cnn(C)c5)c(C(F)F)cc43)c2C1 [Compound M001079] | > 1 µM | > 1 µM
10 | CC(=O)N1Cc2cc(C3CCN(C(=O)C4CCNC4)CC3)cc(N3CCCc4cc(-c5cnn(C)c5)c(C(F)F)cc43)c2C1 (stereo not drawn) [Compound M001080] | > 1 µM | > 1 µM
11 | CNC(=O)N1CCc2cc(C3CCN(C(=O)C4CNC4)CC3)cc(N3CCCc4cc(-c5cnn(C)c5)c(C(F)F)cc43)c2C1 [Compound M001083] | > 1 µM | > 1 µM
12 | CNC(=O)N1CCc2cc(C3CCN(C(=O)C4CN(C)C4)CC3)cc(N3CCCc4cc(-c5cnn(C)c5)c(C(F)F)cc43)c2C1 [Compound M001084] | > 1 µM | > 1 µM

Continued, values first:

Row | IC50 (vCap Cell) | IC50 (22Rv1 Cell) | SMILES
13 | > 1 µM | > 1 µM | CNC(=O)N1CCc2cc(C3CCN(CC(F)F)CC3)cc(N3CCCc4cc(-c5cnn(C)c5)c(C(F)F)cc43)c2C1 [Compound M001055]
14 | > 1 µM | > 1 µM | CC(=O)N1Cc2cc(C3CCN(C4COC4)CC3)cc(N3CCCc4cc(-c5cnn(C)c5)c(C(F)F)cc43)c2C1 [Compound M001056]
15 | > 1 µM | > 1 µM | CC(=O)N1Cc2cc(C3CCN(CC(F)(F)F)CC3)cc(N3CCCc4cc(-c5cnn(C)c5)c(C(F)F)cc43)c2C1 [Compound M001057]
16 | > 1 µM | > 1 µM | CC(=O)N1Cc2cc(C3CCN(CC(F)F)CC3)cc(N3CCCc4cc(-c5cnn(C)c5)c(C(F)F)cc43)c2C1 [Compound M001058]
17 | > 1 µM | > 1 µM | CNC(=O)N1CCc2cc(C3CCN(C4COC4)CC3)cc(N3CCCc4cc(-c5cnn(C)c5)c(C(F)F)cc43)c2C1 [Compound M001059]
18 | < 1 µM | > 1 µM | CC(=O)N1Cc2cc(C3CCC(O)CC3)cc(N3CCCc4cc(-c5cnn(C)c5)c(C(F)F)cc43)c2C1 (stereo not drawn) [Compound M001064]
19 | < 1 µM | < 1 µM | CNC(=O)N1CCc2cc(C3CCN(C(C)=O)CC3)cc(N3CCCc4cc(-c5cnn(C)c5)c(C(F)F)cc43)c2C1 [Compound M001068]
20 | < 1 µM | < 1 µM | CC(=O)N1Cc2cc(C3CCN(CC#N)CC3)cc(N3CCCc4cc(-c5cnn(C)c5)c(C(F)F)cc43)c2C1 [Compound M001074]
21 | < 1 µM | < 1 µM | CC(=O)N1Cc2cc(C3CCN(C(=O)c4ccccc4)CC3)cc(N3CCCc4cc(-c5cnn(C)c5)c(C(F)F)cc43)c2C1 [Compound M001081]

Reference: patent publication US20240109868A1, “EP300/CBP MODULATOR, PREPARATION METHOD THEREFOR AND USE THEREOF” (Miracure Biotechnology Limited, priority 2022, published 2024)
